Reference: patent publication US12377056B2, “Cladribine regimen for treating multiple sclerosis” (priority 2006, dated 2025)

Legend:
[1] = test system: patients with relapsing forms of clinically definite multiple sclerosis; assay: Example 1: oral Cladribine in patients with relapsing forms of MS (MRI brain lesions, safety); assay type: in vivo, human; conditions: for brain lesions (MRI): then maintenance
Description: Each patient is first examined for normal hepatic, renal, and bone marrow functioning to establish baseline values. Patients are selected from Male or Female, between 18 and 55 years of age who had one or more relapses within the prior 12 months. Female patients are non-pregnant female. […] Patients are monitored to determine whether there is any progression or improvement of brain lesions associated with progression of MS through MRI scans and neurological examination as described in Miller et al., 1996, above; Evans et al., 1997, above; Sipe et al., 1984, above; and Mattson, 2002, above. All patients have a baseline and MRI study (brain or spinal cord, according to localization of the lesions) at month 12. The patient's disability progression and the time for having a first relapse are monitored as well as the proportion of relapse-free patients at 24 months. Lymphocyte markers and monocyte counts are monitored in the patients.

[2] = test system: patients with relapsing form of clinically definite MS who relapsed while taking Rebif®; assay: Example 2: oral Cladribine added to Rebif in MS patients with a relapse while taking Rebif (MRI brain lesions, safety); assay type: in vivo, human
[3] = test system: patients with Chronic Progressive MS and Relapsing-Remitting MS; conditions: cited from earlier work
[4] = test system: patients with primary progressive (PP) or secondary progressive (SP) multiple sclerosis; conditions: Phase III; 0.07 mg/kg/day s.c., repeated for 2 or 6 months; cited from earlier work
[5] = test system: patients with remitting-relapsing multiple sclerosis; conditions: oral, 6 monthly courses of 5 days, total dose about 4-5.7 mg/kg; compared with i.v. infusion study (Sipe et al., 1994); cited from earlier work
[6] = oral 2-CdA cyclodextrin tablets, induction treatment followed by maintenance treatments
[7] = oral 2-CdA induction and maintenance treatments combined with Rebif 44 mcg s.c. TIW, 96 weeks

Nc1nc(Cl)nc2c1ncn2[C@H]1C[C@H](O)[C@@H](CO)O1 [Cladribine, 2-chloro-2′deoxyadenosine]
brain lesions (MRI) ([1]; Group 2: oral 2-CdA total dose 1.75 mg/kg over 2 months induction): decrease in brain lesions | brain lesions (MRI) ([1]; Group 3: oral 2-CdA total dose 3.5 mg/kg over 4 months induction): decrease in brain lesions | adverse effects [1, 6]: no severe adverse effect is observed | effect of the regimen on brain lesions [1, 6]: efficient in decreasing brain lesions | brain lesions (MRI) ([2]; Group 2: low dose cladribine (1.75 mg/kg induction + 1.75 mg/kg maintenance) added to Rebif 44 mcg s.c. TIW): decrease in brain lesions | brain lesions (MRI) ([2]; Group 3: high dose cladribine (3.5 mg/kg induction + 1.75 mg/kg maintenance) added to Rebif 44 mcg s.c. TIW): decrease in brain lesions | adverse effects [2, 7]: no severe adverse effect is observed | effect of the regimen on brain lesions [2, 7]: efficient in decreasing brain lesions | EDSS, SNRS scores and MRI findings ([3]; Phase II, 0.1 mg/kg/day 7 days i.v. x 4 months or 0.07 mg/kg/day 5 days s.c. x 6 months): positive effects | adverse effects (AEs) ([3]; observed with the highest doses (Selby et al., 1998; Beutler et al., 1994)): increased incidence of infections related to compromised immune function or myelosuppression | MRI-measured brain lesions [4]: significant reduction of MRI-measured brain lesions | side effects [5]: less severe
